Measured values from ChEMBL document CHEMBL5528044, “Exploring the Function of (+)-Naltrexone Precursors: Their Activity as TLR4 Antagonists and Potential in Treating Morphine Addiction” (J Med Chem, 2024).
Calls of active or inactive are those of the source. No cut-off for these calls is given here.

Key:
[1] = target: T1, Toll-like receptor 4 (Mus musculus, UniProt Q9QUK6); experiment: Antagonist activity at TLR4 in mouse BV-2 cells assessed as inhibition of LPS-induced NO overproduction incubated for 24 hrs by 2,3-diaminonaphthalene reagent based microplate reader analysis; format: cell-based
T1 sequence (Q9QUK6 whole entry): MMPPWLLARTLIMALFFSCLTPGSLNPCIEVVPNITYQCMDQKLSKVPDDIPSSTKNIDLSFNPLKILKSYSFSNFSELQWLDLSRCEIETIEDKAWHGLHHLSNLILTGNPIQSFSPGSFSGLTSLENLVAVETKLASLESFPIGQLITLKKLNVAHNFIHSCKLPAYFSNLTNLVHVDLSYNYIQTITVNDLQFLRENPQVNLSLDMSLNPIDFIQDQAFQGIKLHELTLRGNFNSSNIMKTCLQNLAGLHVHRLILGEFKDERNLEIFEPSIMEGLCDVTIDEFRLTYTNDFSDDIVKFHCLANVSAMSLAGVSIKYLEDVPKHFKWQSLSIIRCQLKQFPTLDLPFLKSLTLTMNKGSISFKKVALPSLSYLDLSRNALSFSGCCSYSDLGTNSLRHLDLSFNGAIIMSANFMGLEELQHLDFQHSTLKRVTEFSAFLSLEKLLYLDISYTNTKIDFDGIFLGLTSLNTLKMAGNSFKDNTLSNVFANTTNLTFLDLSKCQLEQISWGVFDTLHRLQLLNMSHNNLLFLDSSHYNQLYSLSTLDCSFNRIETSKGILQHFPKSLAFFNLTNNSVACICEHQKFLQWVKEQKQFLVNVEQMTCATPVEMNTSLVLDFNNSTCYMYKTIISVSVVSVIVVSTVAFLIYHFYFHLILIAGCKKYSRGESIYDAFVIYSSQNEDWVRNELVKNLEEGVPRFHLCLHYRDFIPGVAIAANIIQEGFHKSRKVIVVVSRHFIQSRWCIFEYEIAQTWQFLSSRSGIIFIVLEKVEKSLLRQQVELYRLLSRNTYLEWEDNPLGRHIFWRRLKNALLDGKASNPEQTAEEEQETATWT

[2] = target: T2, Toll-like receptor 4 (Mus musculus) (UniProt Q9QUK6); experiment: Antagonist activity at TLR4 in mouse BV-2 cells assessed as inhibition of LPS-induced TNF-alpha production at 0.01 to 100 uM by ELISA; format: cell-based; details: dose 0.01-100 µM
T2 sequence (whole entry): T1 sequence (Q9QUK6 whole entry)

[3] = target: T2, Toll-like receptor 4 (Mus musculus); experiment: Antagonist activity at TLR4 in mouse BV-2 cells assessed as inhibition of LPS-induced NF-kappaB activation at 4 uM incubated for 24 hrs by dual-glo luciferase assay; format: cell-based
[4] = target: T2, Toll-like receptor 4 (Mus musculus); experiment: Antagonist activity at TLR4 signaling pathway in mouse BV-2 cells assessed as inhibition of LPS-induced TRIF recruitment at 5 uM incubated for 1 hr by co-immunoprecipitation based Western blot analysis; format: cell-based
[5] = target: T2, Toll-like receptor 4 (Mus musculus); experiment: Antagonist activity at TLR4 signaling pathway in mouse BV-2 cells assessed as inhibition of LPS-induced MyD88 recruitment at 5 uM incubated for 1 hr by co-immunoprecipitation based Western blot analysis; format: cell-based
[6] = target: T2, Toll-like receptor 4 (Mus musculus); experiment: Antagonist activity at TLR4 signaling pathway in mouse BV-2 cells assessed as downregulation of LPS-induced IKKalpha phosphorylation at 5 uM incubated for 1 hr by Western blot analysis; format: cell-based
[7] = target: T2, Toll-like receptor 4 (Mus musculus); experiment: Antagonist activity at TLR4 signaling pathway in mouse BV-2 cells assessed as downregulation of LPS-induced IKKbeta phosphorylation at 5 uM incubated for 1 hr by Western blot analysis; format: cell-based
[8] = target: T2, Toll-like receptor 4 (Mus musculus); experiment: Antagonist activity at TLR4 signaling pathway in mouse BV-2 cells assessed as downregulation of LPS-induced ERK phosphorylation at 5 uM incubated for 1 hr by Western blot analysis; format: cell-based
[9] = target: T2, Toll-like receptor 4 (Mus musculus); experiment: Antagonist activity at TLR4 signaling pathway in mouse BV-2 cells assessed as downregulation of LPS-induced JNK phosphorylation at 5 uM incubated for 1 hr by Western blot analysis; format: cell-based
[10] = target: T2, Toll-like receptor 4 (Mus musculus); experiment: Antagonist activity at TLR4 signaling pathway in mouse BV-2 cells assessed as downregulation of LPS-induced IRF-3 phosphorylation at 5 uM incubated for 1 hr by Western blot analysis; format: cell-based
[11] = tested on: Mus musculus; experiment: Inhibition of morphine-induced addiction behavior in Balb/c mouse assessed as decrease in locomotor activity at 0.2 mg/kg,ip administrated on day 4 to 10 by open-field test; format: functional, organism-based; details: time 7.0 day
[12] = tested on: Mus musculus; experiment: Inhibition of morphine-induced addiction behavior in Balb/c mouse assessed reduction in CPP score at 0.2 mg/kg,ip administrated for 6 consecutive days by conditioned place preference assay; format: functional, organism-based
[13] = tested on: Mus musculus; experiment: Inhibition of chronic morphine-induced microglia activation in Balb/c mouse assessed as reduction in Iba1 expression in brain medial prefrontal cortex region at 0.2 mg/kg,ip administrated for 6 consecutive days by immunofluorescence staining based analysis; format: functional, organism-based
[14] = tested on: Mus musculus; experiment: Inhibition of chronic morphine-induced microglia activation in Balb/c mouse assessed as reduction in Iba1 expression in brain ventral tegmental area region at 0.2 mg/kg,ip administrated for 6 consecutive days by immunofluorescence staining based analysis; format: functional, organism-based
[15] = tested on: Mus musculus; experiment: Inhibition of chronic morphine-induced microglia activation in Balb/c mouse assessed as reduction in Iba1 expression in nucleus accumbens region at 0.2 mg/kg,ip administrated for 6 consecutive days by immunofluorescence staining based analysis; format: functional, organism-based
[16] = tested on: Mus musculus; experiment: Inhibition of chronic morphine-induced microglia activation in Balb/c mouse assessed as reduction in TNF-alpha mRNA expression in brain medial prefrontal cortex region at 0.2 mg/kg,ip administrated for 6 consecutive days by qPCR analysis; format: functional, organism-based
[17] = tested on: Mus musculus; experiment: Inhibition of chronic morphine-induced microglia activation in Balb/c mouse assessed as reduction in TNF-alpha mRNA expression in brain ventral tegmental area region at 0.2 mg/kg,ip administrated for 6 consecutive days by qPCR analysis; format: functional, organism-based
[18] = tested on: Mus musculus; experiment: Inhibition of chronic morphine-induced microglia activation in Balb/c mouse assessed as reduction in TNF-alpha mRNA expression in brain nucleus accumbens region at 0.2 mg/kg,ip administrated for 6 consecutive days by qPCR analysis; format: functional, organism-based
[19] = tested on: Mus musculus; experiment: Inhibition of chronic morphine-induced microglia activation in Balb/c mouse assessed as reduction in microglia cell number in brain medial prefrontal cortex region at 0.2 mg/kg,ip administrated for 6 consecutive days by immunofluorescence staining based analysis; format: functional, organism-based
[20] = tested on: Mus musculus; experiment: Inhibition of chronic morphine-induced microglia activation in Balb/c mouse assessed as reduction in microglia cell number in brain ventral tegmental area region at 0.2 mg/kg,ip administrated for 6 consecutive days by immunofluorescence staining based analysis; format: functional, organism-based
[21] = tested on: Mus musculus; experiment: Inhibition of chronic morphine-induced microglia activation in Balb/c mouse assessed as reduction in microglia cell number in brain nucleus accumbens region at 0.2 mg/kg,ip administrated for 6 consecutive days by immunofluorescence staining based analysis; format: functional, organism-based

## COc1ccc2c3c1O[C@@H]1C(=O)CC[C@]4(O)[C@H](C2)NCC[C@@]314
[1]
  IC50: > 200 µM

## CN1CC[C@@]23c4c5ccc(O)c4O[C@@H]2C(=O)CC[C@]3(O)[C@@H]1C5
[1]
  IC50: 33.5 µM
[2]
  Activity: inactive
[3]
  Activity: inactive
[4]
  Activity: inactive
[5]
  Activity: inactive
[6]
  Activity: inactive
[7]
  Activity: inactive
[8]
  Activity: inactive
[9]
  Activity: inactive
[10]
  Activity: inactive

## COC1=C[C@@H]2[C@@H]3Cc4ccc(OC)c(O)c4[C@]2(CCN3C)CC1=O [SINOMENINE]
[1]
  IC50: > 200 µM

## COc1ccc2c(c1O)[C@@]13CCN(C)[C@@H](C2)[C@H]1CC(OC)C(=O)C3 (some centres not stated)
[1]
  IC50: > 200 µM

## O=C1CC[C@]2(O)[C@@H]3Cc4ccc(O)c5c4[C@]2(CCN3CC2CC2)[C@@H]1O5
[11]
  inhibition: Active
[12]
  inhibition: inactive
[13]
  inhibition: inactive
[14]
  inhibition: inactive
[15]
  inhibition: inactive
[16]
  inhibition: inactive
[17]
  inhibition: inactive
[18]
  inhibition: inactive
[19]
  inhibition: inactive
[20]
  inhibition: inactive
[21]
  inhibition: inactive

## COc1ccc2c3c1O[C@@H]1C(=O)CC[C@]4(OC(C)=O)[C@H](C2)N(C#N)CC[C@@]314
[1]
  IC50: 67.8 µM

## COc1ccc2c3c1O[C@@H]1C(=O)CC[C@@H]4[C@H](C2)N(C)CC[C@@]314
[1]
  IC50: > 200 µM

## COc1ccc2c3c1O[C@@H]1C(=O)CC[C@]4(OC(C)=O)[C@H](C2)N(C)CC[C@@]314
[1]
  IC50: > 200 µM

## COc1ccc2c3c1O[C@@H]1C(OC)(OC)CC[C@@H]4[C@H](C2)N(C)CC[C@]341
[1]
  IC50: > 200 µM

## COC1=CC[C@@H]2[C@@H]3Cc4ccc(OC)c5c4[C@]2(CCN3C)[C@@H]1O5
[1]
  IC50: > 200 µM

## COc1ccc2c3c1O[C@@H]1C(=O)CC[C@]4(O)[C@H](C2)N(C)CC[C@@]314 (single isomer, unassigned)
[1]
  IC50: > 200 µM
[2]
  Activity: inactive
[3]
  Activity: inactive
[4]
  Activity: inactive
[5]
  Activity: inactive
[6]
  Activity: inactive
[7]
  Activity: inactive
[8]
  Activity: inactive
[9]
  Activity: inactive
[10]
  Activity: inactive

## COc1ccc2c3c1O[C@@H]1C(OC)(OC)C(Br)C[C@@H]4[C@H](C2)N(C)CC[C@]341 (some centres not stated)
[1]
  IC50: > 200 µM

## COC1=CC=C2[C@@H]3Cc4ccc(OC)c5c4[C@]2(CCN3C)[C@@H]1O5
[1]
  IC50: 197 µM

## COc1ccc2c3c1O[C@@H]1C(=O)C=C[C@@H]4[C@H](C2)N(C)CC[C@@]314
[1]
  IC50: 6.9 µM
